From patent US4309340A, “Polypeptide compositions” (American Home Products Corporation, priority 1980, dated 1982)
Where a SMILES comes first, the peptide text is derived from it. Where no end group is shown, it is not given here. [ ]: non-standard residue; d: D form.

Experiments:
[1] = tested on: T lymphocytes isolated from spleens of male CBA/J or NZB mice; assay: T lymphocyte proliferation, 3H-thymidine incorporation; assay type: cell-based; design: key: A = Active; IA = Inactive; conditions: 48 hours culture, 200 μl
Description: The activity of the compounds of Example 2 and Example 4 was determined according to the following procedure:
T lymphocytes are isolated from spleens of male CBA/J or NZB mice. Cell homogenates are prepared in Hank's balanced salt solution (HBSS). After removal of larger particles and repeated washing of the cells in HBSS they are suspended in minimum essential medium (MEM) and passed through a glass wool column to remove macrophages. The cells are then incubated on a nylon wool column at 37° C., 95% air, 5% CO2, for 45 minutes. The non-adherant T lymphocytes are then eluted from the column, counted, and adjusted to 20×10^6 cells/ml. 50 μl of cells are cultured (37° C., 95% air, 5% CO2) with compound, for 48 hours before the addition of 0.5 μCi. of 3H-thymidine for the last 16 hours of culture. The total volume of the culture system is 200 μl. The cells are then harvested on a multiple automatic sample harvester (Mash II), the glass fiber filter disks placed in 10 ml. of xylene base scintillation fluid, and counted for 1 minute in a liquid scintillation counter. Results are reported as CPM±SE. Comparisons are made between counts obtained with control cultures and cultures containing compound and a determination made as to whether the compounds are active at the dosage tested.

[2] = tested on: autologous rosette-forming cells in the spleens of athymic mice; conditions: in vivo; cited from earlier work

Molecule	Activity (T-cell proliferation, 3H-thymidine CPM vs control cultures) ([1]; 0.0015 μg/culture)	Activity (T-cell proliferation, 3H-thymidine CPM vs control cultures) ([1]; 0.006 μg/culture)	Activity (T-cell proliferation, 3H-thymidine CPM vs control cultures) ([1]; 0.025 μg/culture)	Activity (T-cell proliferation, 3H-thymidine CPM vs control cultures) ([1]; 0.05 μg/culture)	Activity (T-cell proliferation, 3H-thymidine CPM vs control cultures) ([1]; 0.1 μg/culture)	Activity (T-cell proliferation, 3H-thymidine CPM vs control cultures) ([1]; 0.2 μg/culture)	Numbers of autologous rosette-forming cells in spleens of athymic mice [2]
CC(=O)O.CC(=O)O.CC(=O)O.CC(C)[C@H](NC(=O)[C@H](CC(N)=O)NC(=O)[C@H](CCCCN)NC(=O)[C@@H](N)CCCNC(=N)N)C(=O)N[C@@H](Cc1ccc(O)cc1)C(N)=O [Arg--Lys--Asn--Val--Tyr--NH2, L-Arginyl-L-lysyl-L-asparaginyl-L-valyl-L-tyrosyl-amide triacetate salt] (H-RKNVY-NH2)	A	A	A	A	A	IA	–
CC(=O)O.CC(=O)O.CC(=O)O.CC(C)[C@H](NC(=O)[C@H](CC(N)=O)NC(=O)[C@H](CCCCN)NC(=O)[C@H](N)CCCNC(=N)N)C(=O)N[C@H](Cc1ccccc1)C(N)=O [D-Arg--Lys--Asn--Val--D-Phe--NH2, D-Arginyl-L-lysyl-L-asparaginyl-L-valyl-D-phenylalanyl amide tri acetate salt] (H-[dR]KNV[dF]-NH2)	A	A	A	–	A	–	–
RKDVY [arginyl-lysyl-aspartyl-valyl-tyrosine]	–	–	–	–	–	–	reducing the high numbers of autologous rosette-forming cells
